Results taken from patent publication US11083197B2, “Herbicidal composition comprising chromone derivatives and a method for weed control” (INVESTIGACIONES BIOLÓGICAS EN AGROQUÍMICOS ROSARIO S.A., priority 2015, dated 2021).
Read-outs that look alike come from different tables or passages of the source.

What was measured:
[1] = tested on: ryegrass, barnyardgrass, crabgrass, foxtail, millet, morningglory and velvetleaf; assay: Pre-emergence bioassay in Petri dishes against different weeds; assay type: in vivo; details: 0.5 and 1.0 mM
Experimental: Compounds of Formulas III and IV above were tested in a pre-emergence bioassay (in Petri dishes) against different weeds at 0.5 and 1.0 mM. The seeds of different weeds were placed in Petri dishes with a filter paper and 4 mL of an aqueous solution of each compound or commercial herbicide.
Plant length was measured at 7 days of incubation.

[2] = tested on: onion root tips; assay: Cell death determination by Evans blue staining, root tips; assay type: cell-based, Allium cepa; details: 4 days; for increase in relative cell death: 100 μM; for increase in relative cell death compared to 100 μM: 300 μM
Experimental: To evaluate cell death in roots, onion seeds were germinated and treated as described in postemergence assay with weed species. Onion seedlings were exposed to different doses of compounds of formulas III and IV (0, 100 and 300 μM) during 4 days. For the experiment with leaf disks 3-weeks-cucumber plants were used. One disk (1 cm) was placed in each well of a 12-well plate together with 1 mL of a 2% w/v sucrose/1 mM MES, pH 6.5 solution containing each of the compounds tested at the appropriate concentration (0, 100 or 300 μM) and acetone (1% v/v). Each assay was performed with leaf disks from different plants. Plates were sealed with Parafilm and incubated in a growth chamber at 21-27° C. with a 16/8 h light/dark cycle for 7 days.
Cell death was determined by Evans blue staining.^26 Root tips (5-mm sections) and leaf disks were incubated for 30 min in 0.25% w/v Evans blue aqueous solution at 25° C. on a rotary shaker. After staining, unbound dye was removed by extensive washing with deionized water. Three root tips (3 replicates) or one leaf disk (4 replicates) were ground in a tissue grind tube with 500 μL 1% w/v sodium dodecyl sulfate (SDS). The resulting suspension was centrifuged for 20 min at 20,000 g and the supernatant was used for dye quantification by monitoring the absorbance at 600 and 680 nm. Relative cell death was expressed as A600 for root tips and A600/A680 ratios for leaf disks.

[3] = tested on: duckweed (Lemna paucicostata); assay: Dose-response bioassay with duckweed; assay type: in vivo; details: frond area increase between days 1 and 7, read-out: IC50 (μM) ± SE, duckweed growth inhibition
Experimental: Phytotoxic activity of compounds of formula III and IV above as evaluated on duckweed. Duckweed stocks were grown from a single colony consisting of a mother and two daughter fronds in a beaker on modified Hoagland media (Table 3 below). The medium was adjusted to pH 5.5 with 1 M NaOH and filtered through a 0.2 μm filter. Each well of non-pyrogenic polystyrene sterile 6-well plates was filled with 4.950 ml of Hoagland media and, 50 μl of distilled water, 50 μl of acetone in solvent control or 50 μl of acetone containing the appropriate concentration of test compound. The final concentration of acetone was 1% v/v. Two, three-frond colonies from 4 to 5 d-old stock cultures were placed in each well. Plates were placed in an incubator with white light (94.2 μE m^−2 s^−1). Total frond area per well was recorded by the Scanalyzer (LemnaTec, Germany) image analysis system from days 0 to 7. Percentage of increase between days 1 and 7 was determined relative to baseline area at day zero.
Percentage of increase between days 1 and 7 was determined relative to baseline area at day zero. Data represents means of three replicates±SD.
Statistical Analysis. Data from dose-response experiments were analyzed by a log-logistic model^37-38 using the dose-response curve module^39 of R software version 2.2.1.^40 Concentrations required for 50% germination or growth inhibition relative to control (IC50 values) were obtained from estimated parameters in the regression curves. The standard error (SE) of each estimation is provided. Data from phytotoxicity bioassays in the laboratory and greenhouse, ROS and cell death quantifications were analyzed by ANOVA using the InfoStat statistical software version 2015,^41 and Scheffe's test was employed to compare the means at α=0.05.

[4] = tested on: crabgrass (D. sanguinalis) and velvetleaf (A. theophrasti); assay: Greenhouse postemergence spray, 2.0 kg ai/ha; assay type: in vivo, Digitaria sanguinalis; Abutilon theophrasti; details: for symptoms on leaves after post-emergence spray: 6-8-day-old plants, both weed species
Experimental: Aqueous solutions containing commercial standards of pure compounds of formulas III and IV were prepared and sprayed on crabgrass (D. sanguinalis) and velvetleaf (A. theophrasti). For better dissolution of compounds in water Tween 20 (1% v/v) and acetone (1% v/v) were added to spray solution. For postemergence application 6-8-day-old plants were sprayed, and final rate of compounds was 2.0 kg active ingredient (ai) ha^−1. Plant height and dry weight were measured at 11 days after spray. Results were compared with atrazine at 1.0 kg ai ha^−1.

[5] = tested on: ryegrass; assay: Postemergence bioassay with ryegrass in Petri dishes; assay type: in vivo; details: Lolium multiflorum, post-emergence; 500 μM; day 6 (4 days after application); read-out: Growth inhibition (%) as percentage of control
Experimental: Plant length was measured at day 6 (4 days after application of the compounds)
Plant length's axis starts in 5 mm because seeds were pre-incubated in water, so all seedlings were around 5 mm long at the beginning of the treatment.

[6] = tested on: lettuce; assay: Phytotoxic effect on lettuce under different conditions of illumination; assay type: in vivo, Lactuca sativa; details: 1 mM; light versus darkness; 7 days
Experimental: Bioassays were carried out with lettuce in Petri dishes using the commercial standards of each compound. Lettuce seeds were incubated with 4 mL of an aqueous solution of compounds or acetochlor at 1 mM. Lettuce growth was measured at 7 days of incubation.
The results of this test are shown in FIG. 14 where the Left column (diagonal stripes)=Light and the Right column (in black)=Darkness. Acetochlor was included as a reference of pre-emergent herbicide and to get the highest herbicidal effect, all compounds were tested at 1 mM. Data represent means of three replicates±SD. Different letters above the bars indicate significant differences between treatments (p<0.05).

SMILES	effect on growth and germination of different weeds [1]	increase in relative cell death [2]	increase in relative cell death compared to 100 μM [2]	IC50 ([3]; Lemna aequinoctialis) [µM]	IC50 [3] [µM]	symptoms on leaves after post-emergence spray [4]	inhibition at 500 µM [5] [%]	light dependence of phytotoxicity or herbicidal activity [6]	plant size and biomass respect solvent control ([4]; 11 days after spray)
COc1c2occc2c(OC)c2c(=O)cc(C)oc12 [Formula III, 4,9-dimethoxy-7-methyl-5H-furo[3,2-g]chromen-5-one]	strongly interfered	two-fold	two-fold	160	162 ± 29	Necrosis symptoms	25	not a light-dependent process	–
COc1c2ccoc2cc2oc(C)cc(=O)c12 [Formula IV, 4-methoxy-7-methyl-5H-furo[3,2-g]chromen-5-one]	strongly interfered	two-fold	two-fold	120	122 ± 28	Necrosis symptoms	66	not a light-dependent process	significant reduction of plant size and biomass
